These results are taken from patent US11065266B2, “Method of treating melanoma using an inhibitor of an atypical protein kinase C” (UNIVERSITY OF SOUTH FLORIDA, priority 2016, dated 2021).

Series [1] concerns SK-MEL-2 cells. Kind of series: WST-1 assay for cell viability and cytotoxicity. In kind it is cell-based, human. To be noted: treated at IC50, 3 days. How it is done:
(§1) Approximately 4×10^3 cells (PCS-200-013, SK-MEL-2 and MeWo) were cultured in a 96 well plate. […] This IC50 was obtained based on the cell viability counts in the previous experiments. Additional doses of sterile water or inhibitor were supplied every 24 h during 3 day incubation period. At the end of 3 day treatment, media were removed and fresh media (100 μL) were added with 4-[3-(4-iodophenyl)-2-(4-nitropheny))-2H-5-tetrazolio]-1,3-benzene disulfonate (WST-1) reagent (10 μL) to each well. The absorbance was measured at 450 nm for every 0.5 hour up to 3 hours using the Synergy HT microplate reader from Biotek (Winooski, Vt.).
(§2) WST-1 assay was performed to determine the in-vitro cytotoxicity of ACPD and DNDA on normal and malignant cell lines. Measured absorbance at 450 nm is directly proportional to the number of cells present. Cells produce a water soluble formazan with WST-1 as a result of their mitochondrial dehydrogenase activity. WST-1 assay is preferred over 3-(4,S-Dimethyl-2-thiazolyl)-2, 5-diphenyl-2Htetrazolium bromide (MTT) test since MTT needs to add acidic isopropanol to dissolve formazan which gives an additional toxicity to cells.
(Tetrazolium assays rely on reduction of a dye to a coloured formazan, in cell work by metabolically active cells.)

Series [2] concerns PCS-200-013 normal cells. Put plainly: WST-1 assay for cell viability and cytotoxicity. In kind it is cell-based, human. To be noted: treated at IC50, 3 days. The method, then: as §1, §2
The subject of series [3] is MeWo cells. Put plainly: Inhibitor dose response curves (cell counts after 3 days). In kind it is cell-based, human. How it is done: (§3) Dose curves (inhibitor concentrations vs cell population after 3 days) for ICA-1, ACPD, DND and ζ-Stat were obtained for all 3 cell lines as follows. PCS-200-013, SK-MEL-2 and MeWo cells (4×10^4) were cultured in 25 cm^2 flasks and treated with either equal volume of sterile water (vehicle control). Cells were treated every 24 h during 3 day incubation period and cells were then lifted using Trypsin-EDTA solution (1.5 mL/flask) and neutralized with the equal volume of media. Subsequently, live cells were counted using the Scepter, an automated cell counter from Millipore (Billerica, Mass.). The cell growth inhibition for all inhibitors for the two malignant cell lines (SK-MEL-2 and MeWo) were quantified by counting the viable cells at 24 hour intervals. Cell counts obtained from Scepter was compared with the counts obtained from the Cellometer Vision from Nexcelom Bioscience (Lawrence, Mass.).
(§4) Dose curves for ACPD and DNDA were obtained to investigate the effect on cell proliferation of normal and malignant cell lines over a wide range of concentrations. […] ACPD decreased proliferation by 20% for 1.5 μM (p≤0.01), 48% for 2.5 μM (p≤0.01) and 51% for 3.5 μM (p≤0.001)(FIG. 5B). DNDA decreased by 17% for 500 nM (p≤0.01), 24% for 1.5 μM(p≤0.01), 52%) for 2.5 µM (p≤0.01) and 57 for 3.5 μM (p≤0.01)(FIG. 5C) in SK-MEL-2 cells. ACPD decreased proliferation by 28% for 500 nM (p≤0.01), 41% for 1.5 μM (p≤0.01), 54% for 2.5 µM (p≤0. 01) and 58% for 3.5 μM (p≤0.01) (FIG. 5D). DNDA decreased proliferation by 37% for 500 nM (p≤0.01), 41% for 1.5 μM (p≤0.01), 46% for 2.5 μM (p≤0.01) and 48% for 3.5 μM (p≤0.01) (FIG. 5E) in the MeWo cells.

Series [4] relates to SK-MEL-2 cells. Described as above. In kind it is cell-based, human. How it is done:
as §3, §4

In series [5] the test system is PCS-200-013 normal melanocyte. The series is described as above. In kind it is cell-based, human. To be noted: for effect on cell proliferation of normal melanocytes: dose curve. The method, then: as §3, §4
Series [6] deals with malignant melanoma cells (SK-MEL-2 and MeWo). Put plainly: Viable cell counts, malignant cell lines taken together. In kind it is cell-based. To be noted: Homo sapiens; for IC50: from dose curves of cell proliferation, read-out: half maximal inhibitory concentration (IC50). The method, then: as §3, §4
To test the effects of ζ-Stat on malignant cells approximately 4×10^4 of cells were cultured in 25 cm2 flasks and treated with either equal volume of sterile water (control) or ζ-Stat (0.1-10 μM). Additional doses of sterile water or inhibitor were supplied every 24 h during 3 day incubation period. Subsequently, cells were lifted and counted. Cells were quantified by counting the viable cells at 24 hour intervals. […] N=3 experiments were performed for each cell line and mean±SD are plotted.

Series [7] deals with MeWo cells. Kind of series: Western blot of protein levels. In kind it is cell-based, human.

Regarding `CC(=O)C1=C(O)CCC1=O` [ACPD, 2-acetyl-1,3-cyclopentanedione], the “WST-1 absorbance at 450 nm, effect” value in series [1] was “did not show a significant effect”. In series [2], the “WST-1 absorbance at 450 nm, effect on normal cells” value was “did not show a significant effect”. Also, the decrease of proliferation in series [3] (500 nM) is on record as 28%. The decrease of proliferation in series [3] (1.5 μM) is listed as 41%. In addition, the decrease of proliferation in series [3] (2.5 μM) came out at 54%. This molecule registered a decrease of proliferation in series [3] (3.5 μM) of 58%. The molecule also registered a decrease of proliferation in series [4] (1.5 μM) of 20%. Moreover, the decrease of proliferation in series [4] (2.5 μM) is recorded as 48%. Also, the decrease of proliferation in series [4] (3.5 μM) was 51%. Further, the “effect on cell proliferation of normal melanocytes” value in series [5] is reported as “did not show a significant effect”. Moreover, the IC50 in series [6] is around 2.5 µM. Further, in series [7], the “decrease of Bcl-2 levels” value is listed as 25%, the “decrease of CD44” value was 34%, the “decrease of PARP levels” value came to 24% and the “decrease of Vimentin levels” value is reported as 38%. Besides, in series [7], the “decrease of β-catenin” value amounted to 16%, the “increase of Caspase-3 levels” value was 17%, the “increase of E-cadherin levels” value was 35% and the “increase of NF-KB p65 levels” value came out at 69%. Further, the “increase of cleaved PARP levels” value in series [7] was 18%.
As to `Nc1c(S(=O)(=O)O)cc2cc(S(=O)(=O)O)ccc2c1N` [DNDA, 3,4-diamino-2,7-naphthalenedisulfonic acid], the “WST-1 absorbance at 450 nm, effect” value in series [1] is “significant decrease in absorption”. Further, in series [2], the “WST-1 absorbance at 450 nm, effect on normal cells” value is reported as “did not show a significant effect”. Also, in series [3] (500 nM), the decrease of proliferation is 37%. The same molecule returned a decrease of proliferation in series [3] (1.5 μM) of 41%. In series [3] (2.5 μM), this molecule returned a decrease of proliferation of 46%. Moreover, the decrease of proliferation in series [3] (3.5 μM) was determined as 48%. Besides, in series [4] (500 nM), the decrease of proliferation turned out to be 17%. The molecule also gave a decrease of proliferation in series [4] (1.5 μM) of 24%. The molecule further yielded a decrease of proliferation in series [4] (2.5 μM) of 52%. Besides, the decrease of proliferation in series [4] (3.5 μM) was 57%. For the same molecule, the “inhibition of cell proliferation of normal melanocytes” value in series [5] (3.5 μM) was 13.5%. Also, in series [5], the “effect on cell proliferation of normal melanocytes” value is “did not show a significant effect”. Also, the IC50 in series [6] was around 2.5 µM. For the same molecule, in series [7], the “decrease of Bcl-2 levels” value stood at 32%, the “decrease of CD44” value is 43%, the “decrease of Vimentin levels” value was found to be 45% and the “decrease of β-catenin” value stood at 21%. Further, in series [7], the “increase of Caspase-3 levels” value is given as 39%, the “increase of E-cadherin levels” value was found to be 29%, the “increase of NF-KB p65 levels” value is given as 89% and the “increase of PARP levels” value is listed as 9%. In series [7], the “increase of cleaved PARP levels” value came to 10%.
Regarding `O=S(=O)(O)c1cc(O)c2c(S(=O)(=O)O)cc(S(=O)(=O)O)cc2c1` [ζ-Stat, 8-hydroxy-1,3,6-naphthalenetrisulfonic acid], the cytotoxicity at 2.5 µM in series [6] (2.5 μM, read-out: inhibition of cell viability according to cell counts) was 20 to 25%. For the same molecule, in series [6] (5 μM, read-out: inhibition of cell viability according to cell counts), the cytotoxicity at 5 µM was around 50%. The cytotoxicity at 10 µM in series [6] (10 μM, read-out: inhibition of cell viability according to cell counts) is around 50%.
